≈ marks a conversion by molar mass, not a printed value. Residues, ends and D or L forms follow the SMILES beside them.
Legend:
M. morganii = assay: Minimal inhibitory concentration (liquid culture); details: inoculum 400 CFU/ml; a-b = highest concentration with growth - lowest without growth
Haemophilus influenzae = assay: Inhibition zone assay (agar plate); assay type: cell-based; details: 3 mm wells
E. coli 11775 [1] = assay: Minimal inhibitory concentration (liquid culture); details: a-b = highest concentration with growth - lowest without growth
Yersinia enterocolitica = assay: Inhibition zone assay (agar plate); assay type: cell-based; details: 3 mm wells
E. coli 25922 = assay: Minimal inhibitory concentration (liquid culture); details: inoculum 1100 CFU/ml; a-b = highest concentration with growth - lowest without growth
Pseudomonas syringae = assay: Inhibition zone assay (agar plate); assay type: cell-based; details: agar plate, 50 nanomoles/well, 3 mm wells
E. coli Apid^R [2] = details: cited from earlier work
Morganella morganii = assay: Inhibition zone assay (agar plate); assay type: cell-based; details: 50 nanomoles/well, 3 mm wells
[3] = system: Escherichia coli (ATCC11775); assay: Inhibition zone assay (agar plate); assay type: cell-based; details: agar plate, 50 nanomoles/well, 3 mm wells
A. calcoaceticus = assay: Minimal inhibitory concentration (liquid culture); details: inoculum 16 × 10^6 CFU/ml; a-b = highest concentration with growth - lowest without growth
[4] = system: Agrobacterium tumefaciens; assay: Inhibition zone assay (agar plate); assay type: cell-based; details: agar plate, 3 mm wells
Klebsiella pneumoniae = assay: Inhibition zone assay (agar plate); assay type: cell-based; details: agar plate, 3 mm wells
S. typhimurium = assay: Minimal inhibitory concentration (liquid culture); details: inoculum 8 × 10^6 CFU/ml; a-b = highest concentration with growth - lowest without growth
E. coli Apid^R [5] = assay: Minimal inhibitory concentration (liquid culture); assay type: cell-based; details: a-b = highest concentration with growth - lowest without growth
Source text: For details see `Experimental Procedures`.

[6] = system: Acinetobacter calcoaceticus; assay: Inhibition zone assay (agar plate); assay type: cell-based; details: agar plate, 3 mm wells
E. coli 23802 = assay: Minimal inhibitory concentration (liquid culture); details: inoculum 5000 CFU/ml; a-b = highest concentration with growth - lowest without growth
Enterobacter cloacae = assay: Inhibition zone assay (agar plate); assay type: cell-based; details: agar plate, 3 mm wells
Salmonella typhimurium = assay: Inhibition zone assay (agar plate); assay type: cell-based; details: agar plate, 3 mm wells
E. coli 11775 [7] = details: against 10^7 cells/ml, parental strain ATCC 11775; cited from earlier work
Erwinia amylovora = assay: Inhibition zone assay (agar plate); assay type: cell-based; details: agar plate, 50 nanomoles/well, 3 mm wells
Y. enterocolitica = assay: Minimal inhibitory concentration (liquid culture); details: inoculum 5000 CFU/ml; a-b = highest concentration with growth - lowest without growth
Rhizobium meliloti = assay: Inhibition zone assay (agar plate); assay type: cell-based; details: 3 mm wells
Legionella pneumophila = assay type: cell-based
Gardnerella vaginalis = assay type: cell-based; details: cecropin P1, 5 nanomoles/well
Salmonella typhi = assay type: cell-based; details: agar plate, cecropin P1 5 nanomoles/well (column head: 500p), 3 mm wells
[8] = system: Bacteriodes melaninogenicus; assay type: cell-based; details: cecropin P1, 5 nanomoles/well
Xanthomonas maltophilia = assay type: cell-based; details: cecropin P1, 5 nanomoles/well
Haemophilus ducreyi = assay type: cell-based; details: cecropin P1, 5 nanomoles/well
N. meningiditis = assay type: cell-based; details: cecropin P1, 5 nanomoles/well
Shigella dysenteriae = assay type: cell-based; details: agar plate, cecropin P1 5 nanomoles/well (column head: 500p), 3 mm wells
Campylobacter jejuni = assay: Inhibition zone assay (agar plate); assay type: cell-based; details: cecropin P1 5 nanomoles/well (column head: 500p), 3 mm wells
Escherichia coli (K514) = assay type: cell-based; details: agar plate, cecropin P1 5 nanomoles/well (column head: 500p), 3 mm wells
Helicobacter pylori = assay type: cell-based; details: cecropin P1, 5 nanomoles/well
[9] = system: bacterial strains used in this study; assay: Minimal inhibitory concentration, inoculum effect; assay type: cell-based; details: any of the bacterial strains used
Proteus mirabilis = assay type: cell-based; details: cecropin P1, 5 nanomoles/well
[10] = system: E. coli strain 11775Apid^R; details: 11775Apid^R vs ATCC 11775; cited from earlier work
Neisseria gonorrhoeae = assay type: cell-based; details: cecropin P1, 5 nanomoles/well
[11] = cecropin P1 5 nanomoles/well (column head: 500p)

For `CC[C@H](C)[C@H](NC(=O)[C@H](Cc1ccc(O)cc1)NC(=O)[C@@H](NC(=O)[C@@H]1CCCN1C(=O)[C@H](CCCNC(=N)N)NC(=O)[C@H](CC(N)=O)NC(=O)[C@H](CC(N)=O)NC(=O)CN)C(C)C)C(=O)N1CCC[C@H]1C(=O)N[C@@H](CCC(N)=O)C(=O)N1CCC[C@H]1C(=O)N[C@@H](CCCNC(=N)N)C(=O)N1CCC[C@H]1C(=O)N1CCC[C@H]1C(=O)N[C@@H](Cc1c[nH]cn1)C(=O)N1CCC[C@H]1C(=O)N[C@@H](CCCNC(=N)N)C(=O)N[C@@H](CC(C)C)C(=O)O` [Hb Ib, reference compound] (H-GNNRPVYIPQPRPPHPRL-OH), the “minimal inhibitory concentration (MIC)” value (M. morganii) was 1 to 5 µg/mL, the “inhibition zone diameter (number of plus signs)” value (shortened to “inhibition zone diameter”) (Haemophilus influenzae; 50 nanomoles/well) was “+++ ((+++) 10-14 mm)” and the “minimal inhibitory concentration (MIC)” value (E. coli 11775 [1]; inoculum 16 × 10^6 CFU/ml) was 1 to 5 µg/mL. For the same compound, the “minimal inhibitory concentration (MIC)” value (E. coli 11775 [1]; inoculum 1200 CFU/ml) was less than 0.05 µg/mL, the “inhibition zone diameter” value (Yersinia enterocolitica; 50 nanomoles/well) was “+++ ((+++) 10-14 mm)” and the “minimal inhibitory concentration (MIC)” value (E. coli 25922) was 0.5 to 1 µg/mL. The “inhibition zone diameter” value (Pseudomonas syringae) was “++++ ((++++) 15-19 mm)”, the “resistance of mutant relative to parental strain (higher apidaecin concentrations)” value (E. coli Apid^R [2]; 11775Apid^R vs ATCC 11775) was “approximately 500 fold” and the MIC value (E. coli Apid^R [2]; against 10^7 cells/ml, mutant strain 11775Apid^R) was 50 µg/mL (≈ 23.7 µM). The “inhibition zone diameter” value (Morganella morganii) was “+ ((+) 5-6 mm)”, the “inhibition zone diameter” value [3] was “++++ ((++++) 15-19 mm)” and the “minimal inhibitory concentration (MIC)” value (A. calcoaceticus) was 10 to 20 µg/mL. The “inhibition zone diameter” value ([4]; 50 nanomoles/well) was “+++++ ((+++++) 20 or more min)”, the “inhibition zone diameter” value (Klebsiella pneumoniae; 50 nanomoles/well) was “+++ ((+++) 10-14 mm)” and the “minimal inhibitory concentration (MIC)” value (S. typhimurium) was 1 to 5 µg/mL. The “minimal inhibitory concentration (MIC)” value (E. coli Apid^R [5]; inoculum 12 × 10^6 CFU/ml) was greater than 40 µg/mL, the “minimal inhibitory concentration (MIC)” value (E. coli Apid^R [5]; inoculum 1000 CFU/ml) was 20 to 40 µg/mL and the “inhibition zone diameter” value ([6]; 50 nanomoles/well) was “+ ((+) 5-6 mm)”. The “minimal inhibitory concentration (MIC)” value (E. coli 23802) was 10 to 20 µg/mL, the “inhibition zone diameter” value (Enterobacter cloacae; 50 nanomoles/well) was “+++ ((+++) 10-14 mm)” and the “inhibition zone diameter” value (Salmonella typhimurium; 50 nanomoles/well) was “+++ ((+++) 10-14 mm)”. For the same compound, the MIC value (E. coli 11775 [7]) was 0.1 µg/mL (≈ 0.0474 µM), the “inhibition zone diameter” value (Erwinia amylovora) was “++++ ((++++) 15-19 mm)” and the “minimal inhibitory concentration (MIC)” value (Y. enterocolitica) was 1 to 5 µg/mL. For the same compound, the “inhibition zone diameter” value (Rhizobium meliloti; 50 nanomoles/well) was “+++++ ((+++++) 20 or more min)”.
For `CC[C@H](C)[C@H](NC(=O)CNC(=O)[C@H](CCC(=O)O)NC(=O)[C@H](CO)NC(=O)[C@@H](NC(=O)[C@H](CCCNC(=N)N)NC(=O)[C@H](CCCCN)NC(=O)[C@H](CCCCN)NC(=O)[C@H](C)NC(=O)[C@H](CO)NC(=O)[C@H](CC(N)=O)NC(=O)[C@H](CCC(=O)O)NC(=O)[C@H](CC(C)C)NC(=O)[C@H](CCCCN)NC(=O)[C@H](CCCCN)NC(=O)[C@H](C)NC(=O)[C@@H](NC(=O)[C@H](CCCCN)NC(=O)[C@H](CO)NC(=O)[C@H](CC(C)C)NC(=O)[C@H](Cc1c[nH]c2ccccc12)NC(=O)[C@@H](N)CO)[C@@H](C)O)[C@@H](C)CC)C(=O)N[C@@H](C)C(=O)N[C@H](C(=O)N[C@@H](C)C(=O)N[C@H](C(=O)N[C@@H](CCC(N)=O)C(=O)NCC(=O)NCC(=O)N1CCC[C@H]1C(=O)N[C@@H](CCCNC(=N)N)C(=O)O)[C@@H](C)CC)[C@@H](C)CC` [CP-1, cecropin P1, reference compound] (H-SWLSKTAKKLENSAKKRISEGIAIAIQGGPR-OH), the “minimal inhibitory concentration (MIC)” value (M. morganii) was 0.2 to 1 µg/mL, the “inhibition zone diameter” value (Legionella pneumophila) was “+++++ (key: (+) 5-6 mm; (++) 7-9 mm; (+++) 10-14 mm; (++++) 15-19 mm; (+++++) 20 or more min; (-) denotes that no inhibition was observed)” and the “measurable activity on agar plate” value (Gardnerella vaginalis) was “not”. The “inhibition zone diameter” value (Salmonella typhi) was “+++++ ((+++++) 20 or more min)”, the “inhibition zone diameter” value (Haemophilus influenzae; [11]) was “++++ ((++++) 15-19 mm)” and the “minimal inhibitory concentration (MIC)” value (E. coli 11775 [1]; inoculum 16 × 10^6 CFU/ml) was 0.2 to 1 µg/mL. The “minimal inhibitory concentration (MIC)” value (E. coli 11775 [1]; inoculum 1200 CFU/ml) was 0.2 to 1 µg/mL, the “inhibition zone diameter” value (Yersinia enterocolitica; [11]) was “+++++ ((+++++) 20 or more min)” and the “measurable activity on agar plate” value [8] was “measurable activity”. The “measurable activity on agar plate” value (Xanthomonas maltophilia) was “measurable activity”, the “measurable activity on agar plate” value (Haemophilus ducreyi) was “measurable activity” and the “measurable activity on agar plate” value (N. meningiditis) was “not”. The “minimal inhibitory concentration (MIC)” value (E. coli 25922) was 0.2 to 1 µg/mL, the “inhibition zone diameter” value (Shigella dysenteriae) was “++++ ((++++) 15-19 mm)” and the “inhibition zone diameter” value (Campylobacter jejuni) was “+++ ((+++) 10-14 mm)”. The “inhibition zone diameter” value (Escherichia coli (K514)) was “+ ((+) 5-6 mm)”, the “minimal inhibitory concentration (MIC)” value (A. calcoaceticus) was 2 to 10 µg/mL and the “measurable activity on agar plate” value (Helicobacter pylori) was “not”. The inoculum effect [9] was “No inoculum effect”, the “inhibition zone diameter” value [4, 11] was “++++ ((++++) 15-19 mm)” and the “inhibition zone diameter” value (Klebsiella pneumoniae; [11]) was “+ ((+) 5-6 mm)”. For the same compound, the “minimal inhibitory concentration (MIC)” value (S. typhimurium) was 1 to 2 µg/mL, the “minimal inhibitory concentration (MIC)” value (E. coli Apid^R [5]; inoculum 12 × 10^6 CFU/ml) was 0.2 to 1 µg/mL and the “minimal inhibitory concentration (MIC)” value (E. coli Apid^R [5]; inoculum 1000 CFU/ml) was 0.2 to 1 µg/mL. The “inhibition zone diameter” value [6, 11] was “++ ((++) 7-9 mm)”, the “minimal inhibitory concentration (MIC)” value (E. coli 23802) was 0.2 to 1 µg/mL and the “inhibition zone diameter” value (Enterobacter cloacae; [11]) was “++++ ((++++) 15-19 mm)”. The “inhibition zone diameter” value (Salmonella typhimurium; [11]) was “++ ((++) 7-9 mm)”, the “measurable activity on agar plate” value (Proteus mirabilis) was “not” and the “susceptibility of mutant compared to parental strain” value [10] was “equally susceptible”. For the same compound, the “measurable activity on agar plate” value (Neisseria gonorrhoeae) was “not”, the “minimal inhibitory concentration (MIC)” value (Y. enterocolitica) was 0.2 to 1 µg/mL and the “inhibition zone diameter” value (Rhizobium meliloti; [11]) was “+ ((+) 5-6 mm)”.

Source: patent US5466671A, “Apidaecin-type peptide antibiotics with improved activities and/or different antibacterial spectrum” (priority 1994, dated 1995)
